From patent US12384753B2, “17-beta-hydroxysteroid dehydrogenase type 13 inhibitors and methods of use thereof” (Enanta Pharmaceuticals, Inc., priority 2021, dated 2025)

Target: Recombinant human HSD17B13 (Homo sapiens (Human), UniProt Q7Z5P4)
Assay: HSD17B13 rapid-fire mass spectrometry assay (RF/MS assay)
Type: biochemical
Details: inhibition of HSD17B13; LTB4 10 μM, NAD+ 0.5 mM, RT 3 h; IC50 ranges A-E
Source text: HSD17B13 rapid-fire mass spectrometry assay (RF/MS assay). Recombinant human HSD17B13 was expressed and purified from sf9 cells at Charles River Labs (Saffron Walden, UK). Leukotriene B4 (Catalog #71160-24-2) and 12-oxoleukotriene B4 (Catalog #20140) were purchased from Cayman Chemicals (Ann Arbor, Michigan.). NAD+ (Catalog #N8285), BSA (Catalog #A7030), DMSO (Catalog #D2650), and Tween-20 (Catalog #11332465001) were purchased from Sigma (St. Louis, MO). Formic acid (Catalog #28905) was from ThermoFisher Scientific and 384 deep well PP microplates (Catalog #784261) were from Greiner Bio-One. In a typical IC50 assay performed in a 384w PP microplate, test compounds (0-100 μM) were incubated with HSD17B13 (80 nM), LTB4 (10 μM), and NAD^+ (0.5 mM) in 10 μL assay buffer (20 mM Tris (pH 7.5), BSA (0.005%), and Tween-20 (0.01%)) at RT for 3 h. The assays were quenched by adding 20 μL of 0.15% aqueous formic acid and the plates were frozen at −80° C. RF/MS analysis was performed at PureHoney Technologies (Billerica, MA) on a RapidFire RF300 system (Agilent Technologies, Inc.) coupled to an API 4000 triple quadrupole mass spectrometer (Sciex) equipped with Agilent RapidFire cartridge type A (C4). The mobile phase was 0.09% formic acid and 0.01% trifluoracetic acid in water (Buffer A) and 0.09% formic acid and 0.01% trifluoracetic acid in 80% aqueous acetonitrile (Buffer B). The RapidFire method conditions were the following: 250 ms aspirate, 3000 ms load/desalt, 4000 ms elute, and 500 ms re-equilibrate. RF-MS/MS was performed in negative polarity (−4500 V), the source temperature was 650° C., and gas 1 and gas 2 settings for nitrogen were set to 50. The curtain gas and collision gas were also nitrogen and were set to 20 and 12, respectively. Leukotriene B4 (335.3) and 12-oxoLeukotriene B4 (333.3) SRM transitions were optimized with Discovery Quant software and extracted ion counts for these analytes were determined.
Data Analysis. HSD17B13 enzyme activity was measured as percent conversion of extracted ion counts and normalized to high and low controls to determine percent residual activity at various concentrations of test compounds. Data were fitted to normalized activity (variable slope) versus concentration fit in GraphPad Prism 7 to determine IC50. All experiments were run in duplicates.
By using above method, the inhibition of HSD17B13 was evaluated for the compounds of Formula (I). IC50 ranges are as follows: A=IC50<0.100 μM; B=0.100 μM<IC50<0.500 μM; C=0.500 μM<IC50<1 μM; D=1 μM<IC50<100 μM; E=IC50>100 μM

Sequence of Recombinant human HSD17B13 (Q7Z5P4 20-300): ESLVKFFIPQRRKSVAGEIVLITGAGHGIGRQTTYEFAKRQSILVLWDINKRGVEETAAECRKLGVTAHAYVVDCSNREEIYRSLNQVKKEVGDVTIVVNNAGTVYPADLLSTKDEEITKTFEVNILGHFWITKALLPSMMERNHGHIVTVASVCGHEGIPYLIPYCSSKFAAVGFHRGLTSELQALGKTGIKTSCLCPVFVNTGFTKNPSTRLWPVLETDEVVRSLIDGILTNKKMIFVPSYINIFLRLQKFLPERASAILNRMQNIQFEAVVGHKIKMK

Compound | IC50 [nM]
COc1cc(OC(F)F)ccc1NS(=O)(=O)c1cnc(-c2ccc(F)cc2)s1 [Example 122] | 1000 to 100000
COc1cc(C#N)ccc1NS(=O)(=O)c1cnc(-c2ccc(F)cc2)s1 [Example 123] | 1000 to 100000
COc1cc(C(=O)O)ccc1NS(=O)(=O)c1csc(-c2cccc(C)c2)n1 [Example 124] | 500 to 1000
COc1cc(C(=O)O)ccc1NS(=O)(=O)c1csc(-c2ccccc2C)n1 [Example 125] | 500 to 1000
COc1cc(C(=O)O)ccc1NS(=O)(=O)c1csc(-c2cccc(C(F)(F)F)c2)n1 [Example 126] | 500 to 1000
COc1cc(C(=O)O)ccc1NS(=O)(=O)c1csc(-c2ccccc2C(F)(F)F)n1 [Example 127] | 500 to 1000
COc1cc(C(=O)O)ccc1NS(=O)(=O)c1csc(-c2ccc(O)cc2)n1 [Example 128] | 100 to 500
COc1cc(C(=O)O)ccc1NS(=O)(=O)c1csc(-c2cccc(C#N)c2)n1 [Example 129] | 1000 to 100000
COc1cc(C(=O)O)ccc1NS(=O)(=O)c1csc(-c2ccc3ccccc3c2)n1 [Example 130] | 500 to 1000
CCOC(=O)c1cc2c(c(OC)c1)N(S(=O)(=O)c1csc(-c3ccc(F)cc3)n1)CCC2 [Example 131] | 1000 to 100000
COc1cc(C(=O)O)cc2c1N(S(=O)(=O)c1cnc(-c3ccc(F)cc3)s1)CCC2 [Example 132] | 1000 to 100000
O=C(O)c1ccc2c(c1)CCCCN2S(=O)(=O)c1cnc(-c2ccc(F)cc2)s1 [Example 133] | 1000 to 100000
COc1cc(C(=O)O)ccc1NS(=O)(=O)c1ccc(Oc2ccccc2OC)cc1 [Example 134] | 500 to 1000
COc1cc(-c2nnn[nH]2)ccc1NS(=O)(=O)c1cnc(-c2ccc(F)cc2)s1 [Example 135] | 1000 to 100000
COc1cc(C(=O)O)ccc1NS(=O)(=O)c1csc2ccccc12 [Example 136] | 500 to 1000
COc1cc(C(=O)O)ccc1NS(=O)(=O)c1c[nH]c2ccccc12 [Example 137] | 1000 to 100000
COc1cc(C(=O)O)ccc1NS(=O)(=O)c1coc2ccccc12 [Example 138] | 1000 to 100000
COc1cc(C(=O)O)ccc1NS(=O)(=O)c1ccc2occc2c1 [Example 139] | 1000 to 100000
COc1cccc(-c2nc(S(=O)(=O)Nc3ccc(C(=O)O)cc3OC)cs2)c1 [Example 140] | 500 to 1000
COc1cc(C(=O)O)ccc1NS(=O)(=O)c1csc(-c2ccccc2OC)n1 [Example 141] | 500 to 1000
COc1cc(C(=O)O)ccc1NS(=O)(=O)c1csc(-c2ccccc2O)n1 [Example 142] | 500 to 1000
COc1cc(C(=O)O)ccc1NS(=O)(=O)c1csc(-c2cccnc2)n1 [Example 143] | 1000 to 100000

Compound | IC50 [nM]
COc1cc(C(=O)O)ccc1NS(=O)(=O)c1ccc(-c2ccccc2)cc1 [Example 144] | 100 to 500
COc1cc(C(=O)O)ccc1NS(=O)(=O)c1cccc(-c2ccccc2)c1 [Example 145] | 1000 to 100000
COc1cc(C(=O)O)ccc1NS(=O)(=O)c1csc(-c2cccc(O)c2)n1 [Example 146] | 100 to 500
COc1cc(C(=O)O)ccc1NS(=O)(=O)c1csc(-c2ccccn2)n1 [Example 147] | 1000 to 100000
COc1cc(C(=O)O)ccc1NS(=O)(=O)c1csc(-c2ccc(C#N)cc2)n1 [Example 148] | 1000 to 100000
COc1cc(C(=O)O)ccc1NS(=O)(=O)c1ccc(-c2ccccc2)s1 [Example 149] | 500 to 1000
COc1cc(C(=O)O)ccc1NS(=O)(=O)c1csc(C#Cc2ccccc2)n1 [Example 150] | 100 to 500
COc1cc(C(=O)O)ccc1NS(=O)(=O)c1csc(-c2cccc3ccccc23)n1 [Example 151] | 500 to 1000
COc1cc(C(=O)O)ccc1NS(=O)(=O)c1csc(-c2c(C)ccc3ccccc23)n1 [Example 152] | 100 to 500
COc1cc(C(=O)O)ccc1NS(=O)(=O)c1csc(-c2c(F)ccc3ccccc23)n1 [Example 153] | 100 to 500
COc1cc(C(=O)O)ccc1NS(=O)(=O)c1csc(-c2ccc(OC)c3ccccc23)n1 [Example 154] | 500 to 1000
COc1cc(C(=O)O)ccc1NS(=O)(=O)c1csc(-c2cccc3ccncc23)n1 [Example 155] | 1000 to 100000
COc1cc(C(=O)O)ccc1NS(=O)(=O)c1csc(-c2cccc(C)c2C)n1 [Example 156] | 100 to 500
COc1cc(C(=O)O)ccc1NS(=O)(=O)c1csc(-c2cccc3c2CCCC3)n1 [Example 157] | 100 to 500
COc1cc(C(=O)O)ccc1NS(=O)(=O)c1cnc(-c2ccccc2)s1 [Example 158] | 100 to 500
COc1cc(C(=O)O)ccc1NS(=O)(=O)c1csc(-c2ccccc2C#N)n1 [Example 159] | 1000 to 100000
O=C(O)c1ccc(NS(=O)(=O)c2cnc(-c3ccccc3)s2)c(O)c1 [Example 160] | 100 to 500
COc1cc(C(=O)O)ccc1NS(=O)(=O)c1cnc(-c2ccc(F)cc2)s1 [Example 161] | 100 to 500
COc1cc(C(=O)O)ccc1NS(=O)(=O)c1ccc2ccc(S(=O)(=O)Nc3ccc(C(=O)O)cc3OC)cc2c1 [Example 162] | 100 to 500
COc1cc(C(=O)O)ccc1NS(=O)(=O)c1csc(Nc2ccccc2)n1 [Example 163] | 1000 to 100000
COc1cc(C(=O)O)ccc1NS(=O)(=O)c1csc(NCc2ccccc2)n1 [Example 164] | 1000 to 100000
COc1cc(C(=O)O)ccc1NS(=O)(=O)c1csc(NCCc2ccccc2)n1 [Example 165] | 1000 to 100000

Compound | IC50 [nM]
COc1cc(C(=O)O)ccc1NS(=O)(=O)c1csc(N2CCOCC2)n1 [Example 166] | 1000 to 100000
COc1cc(C(=O)O)ccc1NS(=O)(=O)c1csc(/C=C/c2ccccc2)n1 [Example 167] | 100 to 500
COc1cc(C(=O)O)ccc1NS(=O)(=O)c1ccc(C#Cc2ccccc2)s1 [Example 168] | 100 to 500
COc1cc(C(=O)O)ccc1NS(=O)(=O)c1cnc(C#Cc2ccccc2)s1 [Example 169] | 100 to 500
O=C(O)c1ccc(NS(=O)(=O)c2cccc(S(=O)(=O)Nc3ccc(C(=O)O)cc3O)c2)c(O)c1 [Example 170] | 100 to 500
O=C(O)c1ccc(NS(=O)(=O)c2ccc3ccc(S(=O)(=O)Nc4ccc(C(=O)O)cc4O)cc3c2)c(O)c1 [Example 171] | < 100
O=C(O)c1ccc(NS(=O)(=O)c2ccc(Oc3ccc(S(=O)(=O)Nc4ccc(C(=O)O)cc4O)cc3)cc2)c(O)c1 [Example 172] | 100 to 500
O=C(O)c1ccc(NS(=O)(=O)c2cnc(-c3ccc(F)cc3)s2)c(C(F)F)c1 [Example 173] | 1000 to 100000
COc1cc(C(=O)O)ccc1NS(=O)(=O)c1ccc(-c2ccc(F)cc2)s1 [Example 174] | < 100
COc1cc(C(=O)O)ccc1NS(=O)(=O)c1ccc(-c2ccc(C)cc2)s1 [Example 175] | 100 to 500
COc1cc(C(=O)O)ccc1NS(=O)(=O)c1csc(C#Cc2ccc(C)cc2)n1 [Example 176, 3-methoxy-4-((2-(p-tolylethynyl)thiazole)-4-sulfonamido)benzoic acid] | 100 to 500
COc1ccc(C#Cc2nc(S(=O)(=O)Nc3ccc(C(=O)O)cc3OC)cs2)cc1 [Example 177] | 100 to 500
COc1cc(C(=O)O)ccc1NS(=O)(=O)c1ccc(-c2ccc(C(F)(F)F)cc2)s1 [Example 178] | 100 to 500
COc1ccc(-c2ccc(S(=O)(=O)Nc3ccc(C(=O)O)cc3OC)s2)cc1 [Example 179] | 100 to 500
COc1cc(C(=O)O)ccc1NS(=O)(=O)c1ccc(-c2ccc(O)cc2)s1 [Example 180] | 100 to 500
COc1cc(C(=O)O)ccc1NS(=O)(=O)c1csc(CCc2ccccc2)n1 [Example 181] | 1000 to 100000
COc1cc(C(=O)O)ccc1NS(=O)(=O)c1csc(C#Cc2ccc(C(F)(F)F)cc2)n1 [Example 182] | < 100
COc1cc(C(=O)O)ccc1NS(=O)(=O)c1csc(C#Cc2ccc(O)cc2)n1 [Example 183] | 1000 to 100000
COc1cc(C(=O)O)ccc1NS(=O)(=O)c1csc(C#Cc2ccc(F)cc2)n1 [Example 184] | 100 to 500
COc1cc(C(=O)O)ccc1NS(=O)(=O)c1csc(C#Cc2ccc(Cl)cc2)n1 [Example 185] | 500 to 1000
COc1cc(C(=O)O)ccc1NS(=O)(=O)c1csc(C#Cc2cccc(C)c2)n1 [Example 186] | < 100
COc1cc(C(=O)O)ccc1NS(=O)(=O)c1csc(C#Cc2ccccc2C)n1 [Example 187] | < 100
